Literature values, collected in patent US9724304B2, “Nanospheres for therapeutic agent delivery” (Temple University—Of The Commonwealth System of Higher …, priority 2012, dated 2017).
In brackets after ≈: the same amount, converted by molar mass.

Settings: at 25° C.

aqueous solubility: 29 µg/mL (≈ 96.5 µM)
Compound: CC1=C(/C=C/C(C)=C/C=C/C(C)=C/C(=O)O)C(C)(C)CCC1 [ATRA, All-trans retinoic acid]
